# Results: patent US20230063321A1, “Methods for Treating Inflammatory Bowel Diseases with alpha4beta7 Integrin Antagonists” (Protagonist Therapeutics, Inc., priority 2020, published 2023)
# Several values for one entry are separate records, joined by “and”; a condition that tells them apart may be missing. Equal values may be shown once. Entries after “also recorded” stand apart in the source; their conditions may differ. Numbered stars: 1 amine (or outer) side, 2 acyl side, 3 side chain; on linkers, the order of the positions; unused ones are H or OH. Bridge positions count the residues as written; N and C are the ends. Square brackets hold non-standard residues; d marks the D form. Peptide text beside a SMILES is read from it. I, II: the chains in the order shown. ξ: configuration not given here. Phe(4-tBu) = CC(C)(C)c1ccc(C[C@H](N)C(=O)O)cc1; Diglycolyl = O=C(COCC(=O)[*:2])[*:1]; NMeR = CN[C@@H](CCCNC(=N)N)C(=O)O; β3hE = N[C@@H](CCC(=O)O)CC(=O)O; Thr(3ξ) = CC(O)[C@H](N)C(=O)O; X1 = O=C(c1ccccc1C[*:2])[*:1]; Pen = CC(C)(S)[C@H](N)C(=O)O
# Key:
# [1] = system: integrin β7, integrin α4 and CCR9 on cultured CD3+ cells; assay: Gut homing receptor expression on T cells cultured with ATRA; type: cell-based, B6.SJL mice; details: 100 and 1000 nM in culture
# Procedure: Purified CD3+ cells were isolated from B6.SJL (CD45.1+) donor mice and cultured in the presence of anti-CD3/anti-CD28 beads and IL-2 to induce T cell activation and proliferation. In some culture conditions, Compound A and/or ATRA were added. To track the cells in vivo, ATRA− and ATRA+ cells were labeled with CMFDA and CTFR respectively. These labeled cells were then co-injected into C57BL/6 (CD45.2+) recipient mice.
# Eighteen (18) B6.SJL (CD45.1+) donor mice were acclimated for 3 to 9 weeks before the start of the study and were 11 to 16 weeks old at culture setup (Day 0). On Day 0, spleen and lymph node cells were isolated from donor mice and pooled. CD3+ cells were enriched using […] Technologies kit catalog number 19851. Purity of enriched cells was confirmed by flow cytometry.
# Approximately 44% of the cells were then cultured at 1.5×10^6/mL in the presence of anti-CD3/CD28 beads (Dynabeads, ThermoFisher 11453D), with a 1:1 cell to bead ratio (ATRA−, per Table 4 below). […] All-trans retinoic acid (ATRA) was then added to these cultures at a concentration of 0.1 μM.
# On Day, 1 IL-2 was added to all cultures to reach a concentration of 30 U/mL.
# [2] = Study 1 pharmacokinetics in healthy male volunteers (liquid solution); details: for dose excreted at 24 h: 24-hour fecal recovery, intact, multiple dose; for Tmax: Tmax (h)
# Procedure: Dose escalation proceeded from 100 mg, 300 mg, 1000 mg, 1400 mg. Subjects in the 300 mg dose cohort received treatment in the fasted state on one occasion and following a high fat meal on a second occasion in a crossover fashion. The high fat meal consisted of two eggs fried in butter, two strips of bacon, two slices of toast with butter, four ounces of hash brown potatoes and 240 ml of whole milk. During Part 1, subjects refrained from food and drink except water for 10 hours before and for four hours after dosing with the exception of subjects in the 300 mg dose cohort during the fed treatment.
# Part 2 was a randomized, placebo-controlled, double-blind multiple ascending dose study in 50 male subjects divided equally into 5 cohorts. […] Doses evaluated in Part 2 included 100 mg, 300 mg and 1000 mg. During Part 2, two cohorts of subjects (100 mg and 300 mg) received food approximately 30 minutes prior to each dose and another two cohorts of subjects (300 mg and 100 mg) refrained from food for 10 hours before and for 1 hour after dosing.
# Study 1: The single and multiple ascending dose phase of the study consisted of sequential dose escalations in 10 subject per dose cohort. […] Dose solutions were formulated in 50 mM phosphate buffer pH 7.4 and were prepared weekly by a qualified pharmacist.
# Blood samples for pharmacokinetics were collected predose and for 48 hours postdose following single doses. In the multiple ascending dose phase, blood samples were obtained on Days 1-3 and 14-16; on Days 8 samples were obtained predose, 4, and 12 hours. On Day 10 of the MAD, subjects were required to collect all urine for the 0-6, 6-12, 12-18, and 18-24 hour intervals postdose and on Day 11 subjects were required to collect fecal samples.
# The drug and internal standard were extracted from the matrix by a protein precipitation procedure. The limit of quantitation was 0.2 ng/mL, 20 ng/mL, and 100 ng/mL in plasma, urine, and feces, respectively. […] Coefficient of determinations for the calibration curves were at least 0.99 for all matrices. The interassay accuracy (% bias) ranged from −2.2% to 1.0% for plasma, −3.8% to 9.0% for urine and −5.0 to 5.2% for feces. Interassay precision (% CV) ranged from 3.7% to 7.7% for plasma, 2.8% to 7.0% for urine, and 1.2% to 5.2% for feces.
# Pharmacokinetic parameters were estimated by noncompartmental methods using Phoenix WinNonlin (Certara, Princeton N.J.). Peak plasma concentration (Cmax) and time to peak plasma concentration (Tmax) were observed values. The elimination rate was estimated from the slope of the least-squares regression on the terminal log-linear phase. Area under the plasma concentration-time curve from time zero to the last quantifiable concentration (AUCt) was estimated by a linear trapezoidal method and was extrapolated to infinity (AUC∞) by dividing the last quantifiable concentration b the elimination rate.
smiles,measurement,setting,value
"CC(C)C[C@@H]1NC(=O)[C@H](C(C)O)NC(=O)[C@H](CC(=O)O)NC(=O)[C@H](CO)NC(=O)[C@H](CCCNC(=N)N)N(C)C(=O)c2ccccc2CSC(C)(C)[C@@H](C(=O)N[C@@H](Cc2ccc(C(C)(C)C)cc2)C(=O)N[C@@H](CCC(=O)O)CC(=O)N[C@H](CCCCNC(=O)COCC(=O)NCCCC[C@@H](NC(=O)C[C@H](CCC(=O)O)NC(=O)[C@H](Cc2ccc(C(C)(C)C)cc2)NC(=O)[C@H]2NC(=O)[C@H](CC(C)C)NC(=O)[C@H](C(C)O)NC(=O)[C@H](CC(=O)O)NC(=O)[C@H](CO)NC(=O)[C@H](CCCNC(=N)N)N(C)C(=O)c3ccccc3CSC2(C)C)C(=O)O)C(=O)O)NC1=O (stereo partly drawn) [Compound A, ((2-Benzyl)-(N-Me-R)-Ser-Asp-Thr-Leu-Pen-(Phe(4-tBlu))-(β-homo-Glu)-(D-Lys)-OH)2 (SEQ ID NO: 5) and linker-DIG diglycolic acid] (I: [NMeR]SD[Thr(3ξ)]L[Pen][Phe(4-tBu)][β3hE][dK]-OH / II: [NMeR]SD[Thr(3ξ)]L[Pen][Phe(4-tBu)][β3hE][dK]-OH; linker I:9-II:9 via Diglycolyl; linker I:N-I:6, II:N-II:6 via X1)","expression of CCR9, ATRA+/Compound A vs ATRA+/DMSO cultures",[1],did not appear to be affected
same,"expression of integrin α4, ATRA+/Compound A vs ATRA+/DMSO cultures",[1],lower
same,"proportion of integrin β7+ cells, ATRA+/Compound A vs ATRA+/DMSO cultures",[1],lower proportion; also recorded: smaller proportion
same,"accumulation with once daily dosing (Cmax and AUCt, Day 14 vs Day 1)",[2]; 300 mg and 1000 mg,≤ 30%
same,Fluctuation (%),"[2]; 450 mg Twice Daily, Day 5, Mean ± SD",143% and 143 ± 42%
same,Fluctuation (%),"[2]; 450 mg Twice Daily, Day 5, Mean ± SD, listed as COMPOUND A",143%
same,Fluctuation (%),"[2]; 900 mg Once Daily, Day 5, Mean ± SD",245 ± 81%
same,Fluctuation (%),"[2]; 900 mg Once Daily, Day 5, Mean ± SD, listed as COMPOUND A",245%
same,half-life,"[2]; human, plasma, oral, 100 mg, t½ (h), 100 mg Fed once daily, Day 1, N = 1",3.85 h
same,half-life,"[2]; human, plasma, oral, 100 mg, t½ (h), 100 mg Fed once daily, Day 14, N = 1",7.4 h
same,half-life,"[2]; human, plasma, oral, 300 mg, t½ (h), 300 mg Fed once daily, Day 1, N = 1",7.96 h
same,dose excreted at 24 h,"[2]; male, human, faeces, oral, 300 mg, 300 mg fasted",0.73%
same,dose excreted at 24 h,"[2]; male, human, faeces, oral, 300 mg, 300 mg fed",1.78%
same,dose excreted,"[2]; male, human, faeces, oral, 300 mg, fecal recovery",1 to 2%
same,dose excreted at 24 h,"[2]; male, human, faeces, oral, 1000 mg",16.8%
same,Tmax,"[2]; male, human, plasma, oral, 100 mg, 100 mg Fed once daily, Day 1, Median (Min, Max)",4 h
same,Tmax,"[2]; male, human, plasma, oral, 100 mg, 100 mg Fed once daily, Day 14, Median (Min, Max)",4 h
same,Tmax,"[2]; male, human, plasma, oral, 100 mg, single dose 100 mg, Median (Min, Max)",2 h
same,Cmax,"[2]; male, human, plasma, oral, 100 mg, mean peak plasma concentration (Cmax), single dose 100 mg",2.11 ng/mL
same,half-life,"[2]; male, human, plasma, oral, 100 mg, t½ (h), single dose 100 mg, Mean ± SD, N = 4",3.05 ± 0.71 h
same,Tmax,"[2]; male, human, plasma, oral, 300 mg, 300 mg Fasted once daily, Day 1, Median (Min, Max)",2 h
same,Tmax,"[2]; male, human, plasma, oral, 300 mg, 300 mg Fasted once daily, Day 14, Median (Min, Max)",2 h
same,Tmax,"[2]; male, human, plasma, oral, 300 mg, 300 mg Fed once daily, Day 1, Median (Min, Max)",4 h
same,Tmax,"[2]; male, human, plasma, oral, 300 mg, 300 mg Fed once daily, Day 14, Median (Min, Max)",4 h
same,Tmax,"[2]; male, human, plasma, oral, 300 mg, single dose 300 mg Fasted, Median (Min, Max)",3 h
same,Tmax,"[2]; male, human, plasma, oral, 300 mg, single dose 300 mg High Fat Meal, Median (Min, Max)",4 h
same,half-life,"[2]; male, human, plasma, oral, 300 mg, mean elimination half-life, single doses 100 and 300 mg",3.1 to 4 h
same,half-life,"[2]; male, human, plasma, oral, 300 mg, t½ (h), 300 mg Fasted once daily, Day 1, Mean ± SD",5.16 ± 1.92 h
same,half-life,"[2]; male, human, plasma, oral, 300 mg, t½ (h), 300 mg Fasted once daily, Day 14, Mean ± SD, N = 7",7.31 ± 3.86 h
same,half-life,"[2]; male, human, plasma, oral, 300 mg, t½ (h), single dose 300 mg Fasted, Mean ± SD, N = 4",4.02 ± 1.37 h
same,Tmax,"[2]; male, human, plasma, oral, 450 mg, 450 mg Twice Daily, Day 1, Median (min, max)",2 h
same,Tmax,"[2]; male, human, plasma, oral, 450 mg, 450 mg Twice Daily, Day 5, Median (min, max)",2 h
same,Tmax,"[2]; male, human, plasma, oral, 900 mg, 900 mg Once Daily, Day 1, Median (min, max)",2 h
same,Tmax,"[2]; male, human, plasma, oral, 900 mg, 900 mg Once Daily, Day 5, Median (min, max)",2 h
same,half-life,"[2]; male, human, plasma, oral, 900 mg, t½ (h), 900 mg Once Daily, Day 1, Mean ± SD",5.27 ± 2.4 h
same,half-life,"[2]; male, human, plasma, oral, 900 mg, t½ (h), 900 mg Once Daily, Day 5, Mean ± SD",6.24 ± 2.97 h
same,Tmax,"[2]; male, human, plasma, oral, 1000 mg, 1000 mg Fasted once daily, Day 1, Median (Min, Max)",2 h
same,Tmax,"[2]; male, human, plasma, oral, 1000 mg, 1000 mg Fasted once daily, Day 14, Median (Min, Max)",2 h
same,Tmax,"[2]; male, human, plasma, oral, 1000 mg, single dose 1000 mg, Median (Min, Max)",4 h
same,half-life,"[2]; male, human, plasma, oral, 1000 mg, t½ (h), 1000 mg Fasted once daily, Day 1, Mean ± SD",6.6 ± 1.99 h
same,half-life,"[2]; male, human, plasma, oral, 1000 mg, t½ (h), 1000 mg Fasted once daily, Day 14, Mean ± SD",7.7 ± 3.69 h
same,half-life,"[2]; male, human, plasma, oral, 1000 mg, t½ (h), single dose 1000 mg, Mean ± SD, N = 7",5.26 ± 0.91 h
same,Tmax,"[2]; male, human, plasma, oral, 1400 mg, single dose 1400 mg, Median (Min, Max)",4 h
same,half-life,"[2]; male, human, plasma, oral, 1400 mg, mean elimination half-life, single doses 1000 and 1400 mg",5.3 to 5.7 h
same,half-life,"[2]; male, human, plasma, oral, 1400 mg, t½ (h), single dose 1400 mg, Mean ± SD",5.74 ± 1.35 h
